One assay concerns the target T1, human CYP11B1 (Homo sapiens, UniProt P15538).
T1 construct: expressed in transfected cells
T1 sequence (P15538 25-503): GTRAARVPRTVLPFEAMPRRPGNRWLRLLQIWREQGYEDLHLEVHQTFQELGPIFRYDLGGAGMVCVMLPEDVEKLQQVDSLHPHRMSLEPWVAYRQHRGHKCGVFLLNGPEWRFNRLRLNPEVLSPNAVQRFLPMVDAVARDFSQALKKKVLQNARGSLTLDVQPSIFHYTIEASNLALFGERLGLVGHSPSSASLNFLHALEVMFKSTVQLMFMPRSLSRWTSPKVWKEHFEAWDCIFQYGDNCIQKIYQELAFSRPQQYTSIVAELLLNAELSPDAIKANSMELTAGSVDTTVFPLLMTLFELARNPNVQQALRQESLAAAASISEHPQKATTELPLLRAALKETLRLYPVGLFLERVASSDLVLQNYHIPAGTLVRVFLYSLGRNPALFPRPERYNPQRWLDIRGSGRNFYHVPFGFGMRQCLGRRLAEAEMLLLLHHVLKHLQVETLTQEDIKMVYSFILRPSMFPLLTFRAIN
Put plainly: Inhibition of hCYP11B1 in transfected V79 cells. Format: cell-based. Particulars: hamster V79 cells expressing human CYP11B1; substrate 11-deoxycortisol 200 nM. The method, boiled down:
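Reactions started with 200 nM 11-deoxycortisol, ran for 30 min and were stopped with ethyl acetate, after a 2 h compound preincubation. The host was stably transfected V79 hamster cells carrying human CYP11B1 plus rat P450 reductase. Percent inhibition, from LC-MS/MS or HPLC (260 nm) quantitation of substrate and product, gave the IC50.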

A further assay addresses T2, human CYP11B2 (Homo sapiens, UniProt P19099).
T2 construct: expressed in transfected cells
T2 sequence (P19099 25-503): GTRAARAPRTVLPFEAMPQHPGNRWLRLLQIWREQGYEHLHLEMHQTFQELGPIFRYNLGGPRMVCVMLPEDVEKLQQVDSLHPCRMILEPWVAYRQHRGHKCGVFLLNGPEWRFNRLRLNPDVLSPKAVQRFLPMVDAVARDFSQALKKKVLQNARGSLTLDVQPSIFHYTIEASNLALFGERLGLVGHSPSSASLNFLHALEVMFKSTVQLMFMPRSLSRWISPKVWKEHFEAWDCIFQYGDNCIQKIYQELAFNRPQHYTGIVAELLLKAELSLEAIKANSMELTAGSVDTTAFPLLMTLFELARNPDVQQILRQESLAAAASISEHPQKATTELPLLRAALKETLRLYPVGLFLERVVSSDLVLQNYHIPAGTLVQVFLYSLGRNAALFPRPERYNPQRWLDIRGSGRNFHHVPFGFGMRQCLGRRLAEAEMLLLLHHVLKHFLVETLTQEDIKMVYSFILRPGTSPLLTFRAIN
Put plainly: Inhibition of hCYP11B2 in transfected V79 cells. Format: cell-based. The note with it: hamster V79 cells expressing human CYP11B2; substrate 11-deoxycorticosterone 200 nM. The method in brief: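 The substrate (200 nM, 30 min) was added after a 2 hour compound pre-incubation in lentivirus-transduced V79 cells stably expressing human CYP11B2 plus rat NADPH-P450 reductase.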

pIC50: −log10 of the molar value.

A word on the pIC50: it is −log10 of the IC50, conventionally taken in molar units.

For the compound `N#Cc1ccc(-c2cncc3c2OCCN3C(=O)N2CC(Cc3cccc(F)c3)C2)cc1` [O136, 4-(4-(3-(3-Fluorobenzyl)azetidine-1-carbonyl)-3,4-dihydro-2H-pyrido[4,3-b][1,4]oxazin-8-yl)benzonitrile], the pIC50 is 5.69 against human CYP11B1 and 7.66 at human CYP11B2.

As for `O=C(C1CN(Cc2cccc(F)c2)C1)N1CCOc2c(N3CCn4ccnc4C3)cncc21` [O137, (8-(5,6-Dihydroimidazo[1,2-a]pyrazin-7 (8H)-yl)-2,3-dihydro-4H-pyrido[4,3-b][1,4]oxazin-4-yl)(1-(3-fluorobenzyl)azetidin-3-yl)methanone], the pIC50 on human CYP11B1 was 5.40; against human CYP11B2 it was 7.24.

As to `N#Cc1ccc(-c2cncc3c2SCCN3Cc2cccc(F)c2)cc1` [S1, 4-(4-(3-Fluorobenzyl)-3,4-dihydro-2H-pyrido[4,3-b][1,4]thiazin-8-yl)benzonitrile], the pIC50 at human CYP11B1 was less than 5.30; against human CYP11B2, 6.35.

On to `N#Cc1ccc(-c2cncc3c2SCCN3Cc2ccc(F)cc2)cc1` [S2, 4-(4-(4-Fluorobenzyl)-3,4-dihydro-2H-pyrido[4,3-b][1,4]thiazin-8-yl)benzonitrile], for which the figures for the pIC50 against human CYP11B1 and at human CYP11B2 were less than 5.30 and 6.33, respectively.

With `N#Cc1ccc(-c2cncc3c2SCCN3Cc2cccc([N+](=O)[O-])c2)cc1` [S3, 4-(4-(3-Nitrobenzyl)-3,4-dihydro-2H-pyrido[4,3-b][1,4]thiazin-8-yl)benzonitrile], the pIC50 was less than 5.30 at human CYP11B1 and 6.61 against human CYP11B2.

As to `N#Cc1ccc(-c2cncc3c2SCCN3C(=O)c2cccc(F)c2)cc1` [S4, 4-(4-(3-Fluorobenzoyl)-3,4-dihydro-2H-pyrido[4,3-b][1,4]thiazin-8-yl)benzonitrile], the pIC50 on human CYP11B1 was 5.86; on human CYP11B2 it was 7.46.

On to `N#Cc1ccc(-c2cncc3c2SCCN3C(=O)c2ccc(F)cc2)cc1` [S5, 4-(4-(4-Fluorobenzoyl)-3,4-dihydro-2H-pyrido[4,3-b][1,4]thiazin-8-yl)benzonitrile], for which the results for the negative-log IC50 (pIC50) on human CYP11B1 and against human CYP11B2 were 5.53 and 7.68, respectively.

With `COc1ccc(C(=O)N2CCSc3c(-c4ccc(C#N)cc4)cncc32)cc1` [S6, 4-(4-(4-Methoxybenzoyl)-3,4-dihydro-2H-pyrido[4,3-b][1,4]thiazin-8-yl)benzonitrile], the results for the pIC50 against human CYP11B1 and on human CYP11B2 were 5.76 and 7.28, respectively.

On to `N#Cc1ccc(-c2cncc3c2SCCN3C(=O)c2cccnc2)cc1` [S7, 4-(4-Nicotinoyl-3,4-dihydro-2H-pyrido[4,3-b][1,4]thiazin-8-yl)benzonitrile], for which the results for the pIC50 at human CYP11B1 and against human CYP11B2 were 5.36 and 7.06, respectively.

Take `N#Cc1ccc(-c2cncc3c2SCCN3S(=O)(=O)c2ccccc2)cc1` [S8, 4-(4-(Phenylsulfonyl)-3,4-dihydro-2H-pyrido[4,3-b][1,4]thiazin-8-yl)benzonitrile]: the figures for the pIC50 at human CYP11B1 and against human CYP11B2 were 8.82 and 10.00, respectively.

For `N#Cc1ccc(-c2cncc3c2SCCN3S(=O)(=O)c2cccc(F)c2)cc1` [S9, 4-(4-((3-Fluorophenyl)sulfonyl)-3,4-dihydro-2H-pyrido[4,3-b][1,4]thiazin-8-yl)benzonitrile], the pIC50 against human CYP11B1 is 9.15; against human CYP11B2, 9.70.

Take `N#Cc1ccc(-c2cncc3c2SCCN3S(=O)(=O)c2ccc(F)cc2)cc1` [S10, 4-(4-((4-Fluorophenyl)sulfonyl)-3,4-dihydro-2H-pyrido[4,3-b][1,4]thiazin-8-yl)benzonitrile]: the figures for the pIC50 against human CYP11B1 and at human CYP11B2 were 9.10 and 10.00, respectively.

With `Cc1cccc(S(=O)(=O)N2CCSc3c(-c4ccc(C#N)cc4)cncc32)c1` [S11, 4-(4-(m-Tolylsulfonyl)-3,4-dihydro-2H-pyrido[4,3-b][1,4]thiazin-8-yl)benzonitrile], the pIC50 against human CYP11B1 was 8.68; at human CYP11B2, 9.82.

As for `Cc1ccc(S(=O)(=O)N2CCSc3c(-c4ccc(C#N)cc4)cncc32)cc1` [S12, 4-(4-Tosyl-3,4-dihydro-2H-pyrido[4,3-b][1,4]thiazin-8-yl)benzonitrile], the pIC50 against human CYP11B1 is 8.55; on human CYP11B2, 9.74.

As to `COc1ccc(S(=O)(=O)N2CCSc3c(-c4ccc(C#N)cc4)cncc32)cc1` [S13, 4-(4-((4-Methoxyphenyl)sulfonyl)-3,4-dihydro-2H-pyrido[4,3-b][1,4]thiazin-8-yl)benzonitrile], the values for the pIC50 at human CYP11B1 and at human CYP11B2 were 8.92 and 10.00, respectively.

For the compound `N#Cc1ccc(-c2cncc3c2SCCN3S(=O)(=O)c2cccc(Cl)c2)cc1` [S14, 4-(4-((3-Chlorophenyl)sulfonyl)-3,4-dihydro-2H-pyrido[4,3-b][1,4]thiazin-8-yl)benzonitrile], the pIC50 against human CYP11B1 is 8.32; on human CYP11B2, 9.60.

With `N#Cc1ccc(-c2cncc3c2SCCN3S(=O)(=O)c2ccc(Cl)cc2)cc1` [S15, 4-(4-((4-Chlorophenyl)sulfonyl)-3,4-dihydro-2H-pyrido[4,3-b][1,4]thiazin-8-yl)benzonitrile], the values for the pIC50 against human CYP11B1 and at human CYP11B2 were 8.66 and 10.30, respectively.

`N#Cc1ccc(-c2cncc3c2SCCN3S(=O)(=O)c2cccc(C(F)(F)F)c2)cc1` [S16, 4-(4-((3-(Trifluoromethyl)phenyl)sulfonyl)-3,4-dihydro-2H-pyrido[4,3-b][1,4]thiazin-8-yl) benzonitrile]: the pIC50 on human CYP11B1 was 7.92; against human CYP11B2, 8.98.

For `N#Cc1ccc(-c2cncc3c2SCCN3S(=O)(=O)c2ccc(C(F)(F)F)cc2)cc1` [S17, 4-(4-((4-(Trifluoromethyl)phenyl)sulfonyl)-3,4-dihydro-2H-pyrido[4,3-b][1,4]thiazin-8-yl) benzonitrile], the pIC50 against human CYP11B1 is 7.99; at human CYP11B2 it was 9.40.

Consider `N#Cc1ccc(-c2cncc3c2SCCN3S(=O)(=O)c2cccc([N+](=O)[O-])c2)cc1` [S18, 4-(4-((3-Nitrophenyl)sulfonyl)-3,4-dihydro-2H-pyrido[4,3-b][1,4]thiazin-8-yl)benzonitrile], for which the pIC50 against human CYP11B1 was 8.70; against human CYP11B2, 10.00.

On to `N#Cc1ccc(-c2cncc3c2SCCN3S(=O)(=O)c2ccc([N+](=O)[O-])cc2)cc1` [S19, 4-(4-((4-Nitrophenyl)sulfonyl)-3,4-dihydro-2H-pyrido[4,3-b][1,4]thiazin-8-yl)benzonitrile], for which the pIC50 against human CYP11B1 was 8.92; on human CYP11B2 it was 10.00.

`N#Cc1ccc(-c2cncc3c2SCCN3S(=O)(=O)c2cccc(C#N)c2)cc1` [S20, 3-((8-(4-Cyanophenyl)-2,3-dihydro-4H-pyrido[4,3-b][1,4]thiazin-4-yl)sulfonyl)benzonitrile]: the pIC50 on human CYP11B1 is 8.51; against human CYP11B2, 10.00.

On to `N#Cc1ccc(-c2cncc3c2SCCN3S(=O)(=O)c2ccc(C#N)cc2)cc1` [S21, 4-((8-(4-Cyanophenyl)-2,3-dihydro-4H-pyrido[4,3-b][1,4]thiazin-4-yl)sulfonyl)benzonitrile], for which the pIC50 was 7.82 against human CYP11B1 and 9.52 against human CYP11B2.

Take `N#Cc1ccc(-c2cncc3c2SCCN3S(=O)(=O)c2cccc3ccccc23)cc1` [S22, 4-(4-(Naphthalen-1-ylsulfonyl)-3,4-dihydro-2H-pyrido[4,3-b][1,4]thiazin-8-yl)benzonitrile]: the values for the pIC50 against human CYP11B1 and at human CYP11B2 were 7.29 and 8.28, respectively.

In the case of `N#Cc1ccc(-c2cncc3c2SCCN3S(=O)(=O)c2ccc3ccccc3c2)cc1` [S23, 4-(4-(Naphthalen-2-ylsulfonyl)-3,4-dihydro-2H-pyrido[4,3-b][1,4]thiazin-8-yl)benzonitrile], the pIC50 at human CYP11B1 was 8.72; against human CYP11B2, 9.70.

As to `N#Cc1ccc(-c2cncc3c2SCCN3S(=O)(=O)c2cccs2)cc1` [S24, 4-(4-(Thiophen-2-ylsulfonyl)-3,4-dihydro-2H-pyrido[4,3-b][1,4]thiazin-8-yl)benzonitrile], the pIC50 was 8.96 against human CYP11B1 and 9.89 at human CYP11B2.

On to `N#Cc1ccc(-c2cncc3c2SCCN3S(=O)(=O)c2cccnc2)cc1` [S25, 4-(4-(Pyridin-3-ylsulfonyl)-3,4-dihydro-2H-pyrido[4,3-b][1,4]thiazin-8-yl)benzonitrile], for which the pIC50 on human CYP11B1 is 8.74; on human CYP11B2, 10.40.

For the origin of these results see patent publication US20260092074A1, “Annelated Pyridines as Steroidogenesis Inhibitors, Preparation Method and Use Thereof” (Guangzhou Vinnocent Pharmaceutical Limited, priority 2022, published 2026).
